We go through 22 compounds from patent publication EP3388419A1, “GLI1 INHIBITORS AND USES THEREOF” (Leadiant Biosciences SA, priority 2017, dated 2018).

Molecules are shown by their SMILES. “Also recorded” adds a separate entry of the source. Read-outs that look alike come from different tables or passages of the source.

In assay [1] the test system is DAOY (medulloblastoma cell line). Briefly: Cancer cell proliferation, MTT-based assay, DAOY. To be noted: Homo sapiens, 72 h. As to the method: (§1) The effects on cancer cell proliferation were tested for those compounds shown to be able to reduce Gli1 protein level in NIH3T3 cells. Two different commercial cancer cell lines were used: A375 (metastatic melanoma cell line) and DAOY (medulloblastoma cell line).
(§2) To test the effects on cancer cell proliferation, both cell types were treated for 72 h with increasing doses (10 nM, 50 nM, 100 nM, 250 nM, 500 nM, 1 µM, 5 µM) of each compound and counted at the end of the treatment with an MTT-based assay. IC50 was calculated by GraphPad Prism software.
(In general: Formazan colour is commonly taken as a measure of viable cells.)

The next assay deals with Gli1 protein. Nature of the assay: Effect on Gli1 protein expression by Western blotting in SAG-stimulated NIH3T3 cells. The assay is classed as cell-based, murine. The arrangement: key to Effect on Gli1 protein: +++: Gli1 protein level strongly reduced (almost abolished) at 24 and 48 h compared to DMSO control; ++: Gli1 protein level reduced (more than 50%) at 48 h compared to DMSO control; +: Gli1 protein level is weakly reduced (about 50%) at 48 h compared to DMSO control. To be noted: compound 1 µM; for Effect on Gli1 protein: NIH3T3 cells stimulated with SAG (100nM), 24 or 48 h, compared to DMSO control; for Gli1 protein level: Figure 1, NIH3T3 cells, 48 h, reference GANT61 5 µM, result in words. The protocol:
The effect of compounds on Gli1 protein expression was evaluated in HH-responsive murine NIH3T3 cells by Western blotting. Both Gli1 and Ptch1 are targets of the Gli, and Gli1 in particular is considered the best read-out of HH signaling activity.
Briefly, NIH3T3 were stimulated for 48 h with 3-chloro-N-[trans-4-(methylamino)cyclohexyl]-N-[[3-(4-pyridinyl)phenyl]methyl]-benzo[b]thiophene-2-carboxamide (SAG) (100nM) to activate the endogenous HH pathway, and treated for 24 or 48 h with each compound (1 µM). NIH3T3 cells were lysed and subjected to Western blotting using a specific anti-GLI1 antibody. The effect of each compound was compared to that of GANT61 (5 µM), a well known Gli1/2 inhibitor (Lauth M. et al. PNAS 2007, 104, 8455).

Assay [2] concerns A375 (metastatic melanoma cell line). Briefly: Cancer cell proliferation, MTT-based assay, A375. To be noted: Homo sapiens, A-375, A375, 72 h. As to the method:
as §1, §2

Where [3] appears, read: Table 2, new compounds, read-out: Effect on proliferation DAOY (IC50; nM).
[4] abbreviates: Table 2, new compounds, read-out: Effect on proliferation A375 (IC50; nM).
The mark [5] stands for this setting: Table 3, commercially available compounds, read-out: Effect on proliferation DAOY (IC50; nM).
The mark [6] stands for this setting: Table 3, commercially available compounds.
Where [7] appears, read: Table 3, commercially available compounds, read-out: Effect on proliferation A375 (IC50; nM).
Where [8] appears, read: Figure 2 dose-response curve, read-out: IC50.

With `c1cnc2c3c(ccc2c1)CN(CC1CCCCC1)CO3` [SST0912AA1, 3-(cyclohexylmethyl)-3,4-dihydro-2H-[1,3]oxazino[5,6-h]quinoline], the IC50 in assay [1] (setting [3]) was not below 1000 nM; in assay [2] (setting [4]), 300 to 1000 nM. Also, the “Effect on Gli1 protein” value in the assay on Gli1 protein (Table 2, new compounds) was “+”.
For `CCCCC(=O)NC(c1ccc(OC)c(OC)c1)c1ccc2cccnc2c1O` (stereo not shown) [SST0777AA1, Pentanamide, N-[(3,4-dimethoxyphenyl)(8-hydroxy-7-quinolinyl)methyl]], the IC50 in assay [1] (setting [5]) and in assay [2] (setting [7]) was 300 to 1000 nM in each case. In addition, the “Effect on Gli1 protein” value in the assay with Gli1 protein (setting [6]) is “+++”.
`Clc1cc2c(c3ncccc13)OCN(CCc1ccccc1)C2` [SST0794AA1, 2H-Pyrido[3,2-h]-1,3-benzoxazine, 6-chloro-3,4-dihydro-3-(2-phenylethyl)-]: the IC50 in assay [1] (setting [5]) and in assay [2] (setting [7]) was not above 300 nM in each case. Also, in the assay with Gli1 protein (setting [6]), the “Effect on Gli1 protein” value is “++ (Gli1 protein level reduced (more than 50%) at 48 h compared to DMSO control)”.
With `CCCC(=O)NC(c1ccc(Cl)cc1Cl)c1cc(Cl)c2cccnc2c1O` (stereo not shown) [SST0689AA1, N-[(5-Chloro-8-hydroxy-quinolin-7-yl)-(2,4-dichlorophenyl)-methyl]-butyramide], the IC50 in assay [1] (setting [5]) and in assay [2] (setting [7]) was 300 to 1000 nM in each case. In the assay on Gli1 protein (setting [6]), the “Effect on Gli1 protein” value was “+++”.
In the case of `COc1ccc(C(NC(=O)C(C)C)c2cc(Cl)c3cccnc3c2O)cc1OC` (stereo not shown) [SST0769AA1, Propanamide, N-[(5-chloro-8-hydroxy-7-quinolinyl)(3,4-dimethoxyphenyl)methyl]-2-methyl-], the IC50 in assay [1] (setting [5]) and in assay [2] (setting [7]) was 300 to 1000 nM each time. The “Effect on Gli1 protein” value with Gli1 protein (setting [6]) is listed as “++ (Gli1 protein level reduced (more than 50%) at 48 h compared to DMSO control)”.
With `CCCCN1COc2c(cc(Cl)c3cccnc23)C1` [SST0793AA1, 2H-Pyrido[3,2-h]-1,3-benzoxazine, 3-butyl-6-chloro-3,4-dihydro-], the IC50 in assay [1] (setting [5]) and in assay [2] (setting [7]) was 300 to 1000 nM each time. Further, in the assay on Gli1 protein (setting [6]), the “Effect on Gli1 protein” value is recorded as “++ (Gli1 protein level reduced (more than 50%) at 48 h compared to DMSO control)”.
In the case of `CCCC(=O)NC(c1ccc(Cl)cc1Cl)c1ccc2cccnc2c1O` (stereo not shown) [SST0776AA1, Butanamide, N-[(2,4-dichlorophenyl)(8-hydroxy-7-quinolinyl)methyl]-], the IC50 in assay [1] (setting [5]) and in assay [2] (setting [7]) was not above 300 nM each time. Further, the “Effect on Gli1 protein” value with Gli1 protein (setting [6]) is on record as “+++”.
Turning to `c1cnc2c3c(ccc2c1)CN(C1CCCCCC1)CO3` [SST0913AA1, 3-cycloheptyl-3,4-dihydro-2H-[1,3]oxazino[5,6-h]quinoline], the IC50 was not below 1000 nM in assay [1] (setting [3]) and 300 to 1000 nM in assay [2] (setting [4]). Also, the “Effect on Gli1 protein” value in the assay on Gli1 protein (Table 2, new compounds) is “+”.
Take `COc1ccc(CN2COc3c(ccc4cccnc34)C2)cc1` [SST0910AA1, 3-(4-methoxybenzyl)-3,4-dihydro-2H-[1,3]oxazino[5,6-h]quinoline]: the IC50 in assay [1] (setting [3]) and in assay [2] (setting [4]) was 300 to 1000 nM each time. Further, in the assay on Gli1 protein (Table 2, new compounds), the “Effect on Gli1 protein” value is recorded as “+”.
Regarding `c1ccc(CCN2COc3c(ccc4cccnc34)C2)cc1` [SST0823AA1, 3-phenethyl-3,4-dihydro-2H-[1,3]oxazino[5,6-h]quinoline], the IC50 in assay [1] (setting [3]) and in assay [2] (setting [4]) was not above 300 nM throughout. Also, in the assay on Gli1 protein, the Gli1 protein level entry is “drastic reduction of Gli1 protein level; also recorded: abolish Gli1 protein level”. For the same compound, the “Effect on Gli1 protein” value in the assay on Gli1 protein (Table 2, new compounds) is on record as “+++”.
As for `c1ccc2c(c1)CCC(N1COc3c(ccc4cccnc34)C1)C2` (stereo not shown) [SST0893AA1, 3-(1,2,3,4-tetrahydronaphthalen-2-yl)-3,4-dihydro-2H-[1,3]oxazino[5,6-h]quinoline], the IC50 in assay [1] (setting [3]) and in assay [2] (setting [4]) was 300 to 1000 nM in each case. The “Effect on Gli1 protein” value in the assay with Gli1 protein (Table 2, new compounds) is listed as “+”.
For the compound `CCCCC(=O)NC(c1ccc(C(C)C)cc1)c1cc(Cl)c2cccnc2c1O` (stereo not shown) [SST0774AA1, Pentanamide, N-[(5-chloro-8-hydroxy-7-quinolinyl)[4-(1-methylethyl)phenyl]methyl]-], the IC50 in assay [1] (setting [5]) and in assay [2] (setting [7]) was not above 300 nM throughout. Moreover, the “Effect on Gli1 protein” value in the assay on Gli1 protein (setting [6]) is given as “+++”.
As for `Clc1cc2c(c3ncccc13)OCN(CCCN1CCOCC1)C2` [SST0792AA1, 2H-Pyrido[3,2-h]-1,3-benzoxazine, 6-chloro-3,4-dihydro-3-[3-(4-morpholinyl)propyl]-], the figures for the IC50 in assay [1] (setting [5]) and in assay [2] (setting [7]) were not below 1000 nM and not above 300 nM, respectively. Further, the “Effect on Gli1 protein” value in the assay with Gli1 protein (setting [6]) is “+”.
For `O=C1Oc2c(ccc3cccnc23)C(c2ccc(Cl)cc2Cl)N1CCc1ccccc1` (stereo not shown) [SST0826AA1, 4-(2,4-dichlorophenyl)-3-phenethyl-3,4-dihydro-2H-[1,3]oxazino[5,6-h]quinolin-2-one], the Gli1 protein level entry with Gli1 protein is on record as “slight reduction in Gli1 protein level”.
`Fc1cnc2c3c(ccc2c1)CN(CCc1ccccc1)CO3` [SST0891AA1, 8-fluoro-3-phenethyl-3,4-dihydro-2H-[1,3]oxazino[5,6-h]quinoline]: the IC50 in assay [1] (setting [3]) and in assay [2] (setting [4]) was not below 1000 nM in each case. For the same compound, in the assay on Gli1 protein, the Gli1 protein level result is reported as “comparable to that obtained with GANT61”. Further, the “Effect on Gli1 protein” value in the assay with Gli1 protein (Table 2, new compounds) is recorded as “+”.
With `c1cnc2c3c(ccc2c1)CN(C1CCCCC1)CO3` [SST0892AA1, 3-cyclohexyl-3,4-dihydro-2H-[1,3]oxazino[5,6-h]quinoline], the IC50 in assay [1] (setting [8]) is 500 nM; in assay [1] (setting [3]), 300 to 1000 nM; in assay [2] (setting [8]), 300 nM; in assay [2] (setting [4]), not above 300 nM. In the assay on Gli1 protein, the Gli1 protein level result is recorded as “drastic reduction of Gli1 protein level; also recorded: abolish Gli1 protein level”. Further, in the assay with Gli1 protein (Table 2, new compounds), the “Effect on Gli1 protein” value was “+++”.
With `Oc1c(C(NCCc2ccccc2)c2ccc(Cl)cc2Cl)ccc2cccnc12` (stereo not shown) [SST0827AA1, 7-((2,4-dichlorophenyl)(phenethylamino)methyl)quinolin-8-ol], the IC50 in assay [1] (setting [3]) and in assay [2] (setting [4]) was not above 300 nM each time. Also, the Gli1 protein level result with Gli1 protein is “drastic reduction of Gli1 protein level; also recorded: abolish Gli1 protein level”. Moreover, the “Effect on Gli1 protein” value in the assay on Gli1 protein (Table 2, new compounds) is reported as “+++”.
On to `COc1ccc(C(NC(C)=O)c2cc(Cl)c3cccnc3c2O)cc1OC` (stereo not shown) [SST0687AA1, N-[(5-Chloro-8-hydroxy-quinolin-7-yl)-(3,4-dimethoxy-phenyl)-methyl]-acetamide], for which the IC50 in assay [1] (setting [5]) and in assay [2] (setting [7]) was 300 to 1000 nM in each case. The “Effect on Gli1 protein” value in the assay on Gli1 protein (setting [6]) is “+++”.
For `CCCC(=O)NC(c1ccc(C)cc1)c1cc(Cl)c2cccnc2c1O` (stereo not shown) [SST0773AA1, Butanamide, N-[(5-chloro-8-hydroxy-7-quinolinyl)(4-methylphenyl)methyl]-], the IC50 in assay [1] (setting [5]) and in assay [2] (setting [7]) was 300 to 1000 nM each time. In addition, the “Effect on Gli1 protein” value with Gli1 protein (setting [6]) is reported as “+”.
`CCCC(=O)NC(c1ccccc1Cl)c1cc(Cl)c2cccnc2c1O` (stereo not shown) [SST0775AA1, Butanamide, N-[(5-chloro-8-hydroxy-7-quinolinyl)(2-chlorophenyl)methyl]-]: the IC50 in assay [1] (setting [5]) and in assay [2] (setting [7]) was 300 to 1000 nM each time. Also, the “Effect on Gli1 protein” value with Gli1 protein (setting [6]) was “+”.
Consider `CCCC(=O)NC(c1ccc(N(CC)CC)cc1)c1cc(Cl)c2cccnc2c1O` (stereo not shown) [SST0771AA1, Butanamide, N-[(5-chloro-8-hydroxy-7-quinolinyl)[4-(diethylamino)phenyl]methyl]-], for which the IC50 in assay [1] (setting [5]) and in assay [2] (setting [7]) was 300 to 1000 nM each time. In addition, the “Effect on Gli1 protein” value with Gli1 protein (setting [6]) is given as “+++”.
For the compound `Clc1cc2c(c3ncccc13)OCN(CCC1=CCCCC1)C2` [SST0791AA1, 2H-Pyrido[3,2-h]-1,3-benzoxazine, 6-chloro-3-[2-(1-cyclohexen-1-yl)ethyl]-3,4-dihydro-], the IC50 in assay [1] (setting [5]) and in assay [2] (setting [7]) was not above 300 nM each time. Besides, in the assay with Gli1 protein (setting [6]), the “Effect on Gli1 protein” value is “++ (Gli1 protein level reduced (more than 50%) at 48 h compared to DMSO control)”.
